Source: PMC12735844, “2-(Trihydroxyphenyl)thienopyrimidinones as Key Scaffolds for Targeting a Novel Allosteric Site of HIV-1 Integrase” (Molecules, 2025)
Values joined by “and” are separate entries in the source; they are usually repeats but may differ in a detail not shown here. Equal entries are not always repeated. Where two headings read alike, the source gives them in different places.

Tests used:
[1] = molecular target: T1, HIV-1 IN (wild-type) in the presence of LEDGF/p75 (Human immunodeficiency virus type 1 group M subtype B, UniProt P12497); set-up: method as in PMID 37764476, PMID 23631411; conditions: previously reported dihydroxyphenyl-thienopyrimidinones; read-out: IN LEDGF/p75-dependent IC50; cited from earlier work
T1 construct: IN is a 32 kDa multimeric enzyme comprising three domains; His; made in house; host or cells: Escherichia coli BL21 (DE3)

[2] = molecular target: T2, HIV-1 IN in the absence of LEDGF/p75 (Human immunodeficiency virus type 1 group M subtype B, UniProt P12497); assay: HTRF HIV-1 IN LEDGF/p75-independent assay; type: biochemical; conditions: mean ± SE, three experiments, read-out: IC50 IN LEDGF/p75-independent integration
T2 construct: His; made in house; host or cells: Escherichia coli BL21 (DE3)
Procedure: (§1) The IN LEDGF/p75-dependent and indepentent assay was performed for the evaluation of 3′-processing and strand-transfer IN reactions inhibition in the presence/absence of recombinant LEDGF/p75 protein, as previously described.

[3] = molecular target: T1, HIV-1 IN (wild-type) in the presence of LEDGF/p75; assay: HTRF HIV-1 IN LEDGF/p75-dependent assay (3'-processing and strand transfer), wild-type IN, with or without sucrose; type: biochemical; conditions: for IC50: IC50 IN LEDGF/p75-dependent integration
Procedure: as §1
(§2) The same assay in the presence of HIV-1 IN wt, K173A and H185A mutant proteins, was used to evaluate the effect of sucrose in the presence of selected compounds.

[4] = system: HIV-1RF isolate in CEM-SS cells; assay: Antiviral activity, XTT-based cell viability assay
Procedure: (§3) Antiviral activity of selected thienopyrimidinones was determined via the 2,3-bis[2-methoxy-4-nitro-5-sulfophenyl]-5-[(phenylamino)-carbonyl]-2H tetrazolium hydroxide (XTT)-based cell viability assay, using the HIV-1RF isolate and human T-cell line CEM-SS.

[5] = molecular target: T3, HIV-1 IN H185A mutant (Human immunodeficiency virus type 1 group M subtype B, UniProt P12497, F1332A); assay: HTRF IN LEDGF/p75-dependent assay on H185A mutant, with or without sucrose; type: biochemical; conditions: for IC50: LEDGF/p75-dependent activity; for Fold of increase of potency, H185A mutant: with sucrose vs alone
T3 construct: IN is a 32 kDa multimeric enzyme comprising three domains; His; made in house; host or cells: Escherichia coli BL21 (DE3)
Procedure: (§4) The commercial QuikChange mutagenesis Kit (Agilent Technologies Inc., Santa Clara, CA, USA) were used to introduce the selected substitutions on HIV-1 IN wt plasmid and the correct presence of alanine in 173 and 185 position were evaluated in the electropherogram provided by Bio-Fab, after the sequencing.
(§5) HIV-1 IN wt, K173A and H185A mutant proteins were expressed in Escherichia coli strain BL21 (DE3) after transformation with a plasmid containing protein gene. Recombinant proteins were then purified using a Ni-Sepharose column and a heparin column and stored as previously described. LEDGF/p75 with 6-his and FLAG tags were purified with a heparin column and a Superdex 200 GL (Merck Sigma Aldrich, Milan, Italy) column previously described.
as §1, §2

[6] = molecular target: T4, HIV-1 IN K173A mutant (Human immunodeficiency virus type 1 group M subtype B, UniProt P12497, K1320A); assay: HTRF IN LEDGF/p75-dependent assay on K173A mutant, with or without sucrose; type: biochemical; conditions: for Fold of increase of potency, K173A mutant: with sucrose vs alone
T4 construct: IN is a 32 kDa multimeric enzyme comprising three domains; His; made in house; host or cells: Escherichia coli BL21 (DE3)
Procedure: as §4, §5, §1, §2

[7] = molecular target: T5, HIV-1 IN-IN subunit exchange (Human immunodeficiency virus type 1 group M subtype B, UniProt P12497); assay: HTRF-based IN-IN subunit exchange assay; type: biochemical; conditions: for IC50: mean ± SE, three experiments
T5 construct: IN is a 32 kDa multimeric enzyme comprising three domains; made in house; host or cells: Escherichia coli BL21 (DE3)
Procedure: (§6) HIV-1 His and FLAG-tagged INs were mixed in a mix buffer previously described and compounds added to the mixture and incubated for 2.5 h at room temperature. At the end of the time, a mixture of anti-His6-XL665 and anti-FLAG-EuCryptate antibodies were added to the reaction and, after an incubation time of 3 h, the HTRF signal was recorded as described in the previous paragraph.

[8] = system: human T-cell line CEM-SS; assay: Cytotoxicity in the XTT-based cell viability assay; conditions: CEM-SS cells
Procedure: as §3

[9] = molecular target: T6, HIV-1 IN/LEDGF/p75 binding (Human immunodeficiency virus type 1 group M subtype B, UniProt P12497); assay: HTRF-based IN-LEDGF/p75 binding assay; conditions: mean ± SE, three experiments
T6 construct: IN is a 32 kDa multimeric enzyme comprising three domains; made in house; host or cells: Escherichia coli BL21 (DE3)
Procedure: The IN-LEDGF/p75 binding was evaluated using a FRET method, in which His-IN was pre-incubated with test compounds in a mix buffer previously described, for 30 min at room temperature. After the addition of FLAG-LEDGF/p75 and a mixture of anti-His6-XL665 and anti-FLAG-EuCryptate antibodies, the reaction was read after 4 h at 4 °C, using 314 nm for excitation wavelength and […] and 620 nm for the wavelength of the acceptor and donor emission, respectively, with a Perkin Elmer Victor 3 plate reader (Perkin Elmer, Waltham, MA, USA), and the HTRF signal calculated by the emission ratio 665 nm/620 nm multiplied by 10.000.

[10] = molecular target: T7, HIV-1 IN multimerization (Human immunodeficiency virus type 1 group M subtype B, UniProt P12497); assay: HTRF-based assay of higher-order, aberrant IN multimerization; type: biochemical; conditions: dash = no induction of higher-order
T7 construct: IN is a 32 kDa multimeric enzyme comprising three domains; made in house; host or cells: Escherichia coli BL21 (DE3)
Procedure: as §6

[11] = molecular target: wt RT RNase H; set-up: method as in PMID 33143469; conditions: previously reported quinazolinone; cited from earlier work
[12] = in the presence of LEDGF/p75, compound alone, mean ± SE, three experiments
[13] = HIV-1 IN H185A mutant IC50 alone, no sucrose
[14] = HIV-1 IN H185A mutant IC50 with sucrose, in the presence of sucrose
[15] = LEDGF/p75-dependent, IC50 alone vs with sucrose

In the case of `Cc1sc2nc(-c3cc(O)ccc3O)[nH]c(=O)c2c1C` [Compound 4], the IC50 [1] is given as 85 ± 6 µM.
Work on `Cc1sc2nc(-c3cc(O)c(O)c(O)c3)[nH]c(=O)c2c1C` [Compound 5, 5,6-Dimethyl-2-(3,4,5-trihydroxyphenyl)thieno[2,3-d]pyrimidin-4(3H)-one] yielded an IC50 [2] of 5.35 ± 0.55 µM and an IC50 [3, 12] of 8 ± 2 µM.
With `O=c1[nH]c(-c2cc(O)c(O)c(O)c2)nc2sc3c(c12)CCC3` [Compound 13, 2-(3,4,5-Trihydroxyphenyl)-3,5,6,7-tetrahydro-4H-cyclopenta[4,5]thieno[2,3-d]pyrimidin-4-one] the IC50 [2] was 1.12 ± 0.22 µM.
Molecule `Cc1sc2nc(-c3ccc(O)c(O)c3O)[nH]c(=O)c2c1C` [Compound 8, 5,6-Dimethyl-2-(2,3,4-trihydroxyphenyl)thieno[2,3-d]pyrimidin-4(3H)-one] has an IC50 [3, 12] of 11.8 ± 1.85 µM.
For `Cc1sc2nc(-c3cc(O)c(O)cc3O)[nH]c(=O)c2c1C` [Compound 6, 5,6-Dimethyl-2-(2,4,5-trihydroxyphenyl)thieno[2,3-d]pyrimidin-4(3H)-one], the “effect on viral replication” value [4] was “not able to inhibit viral replication”, the IC50 [5, 13] was 4.64 ± 0.7 µM and the IC50 [5, 14] was 0.48 ± 0.08 µM. For the same molecule, the “Fold of increase of potency, H185A mutant” value [5] was 9.7, the IC50 [2] was 0.76 ± 0.01 µM and the IC50 [6] was 6.5 ± 1.7 µM. For the same molecule, the “Fold of increase of potency, K173A mutant” value [6] was 32.5, the “reduction in activity by sucrose (times)” value [3, 15] was “approximately 10” and the IC50 [7] was 5.45 ± 0.05 µM. For the same molecule, the cytotoxicity [8] was “devoid of cytotoxicity”, the IC50 [9] was 75 ± 12 µM and the “MI50 IN multimerization” value [10] was “none succeeded in inducing multimerization”.
In the case of `O=c1[nH]c(-c2cc(O)cc(O)c2)nc2sc3c(c12)CCCCC3` [Compound 3], the IC50 [1] is listed as 3.37 ± 0.48 µM.
For `O=c1[nH]c(-c2cc(O)c(O)c(O)c2)nc2sc3c(c12)CCCCC3` [Compound 10, 2-(3,4,5-Trihydroxyphenyl)-3,5,6,7,8,9-hexahydro-4H-cyclohepta[4,5]thieno[2,3-d]pyrimidin-4-one], the “effect on viral replication” value [4] was “not able to inhibit viral replication”, the IC50 [5, 13] was 2.27 ± 0.43 µM and the IC50 [5, 14] was 0.61 ± 0.022 µM. The “Fold of increase of potency, H185A mutant” value [5] was 3.7, the IC50 [2] was 3.6 ± 0.39 µM and the IC50 [6] was 3.3 ± 0.86 µM. For the same molecule, the “Fold of increase of potency, K173A mutant” value [6] was 13.2, the IC50 [3, 12] was 0.31 µM and 0.315 µM and the “increase of inhibitory capacity by sucrose (times)” value [3, 15] was about 16. The IC50 [7] was 2.05 ± 0.35 µM, the cytotoxicity [8] was “devoid of cytotoxicity” and the IC50 [9] was 6.16 ± 0.98 µM. The “MI50 IN multimerization” value [10] was “none succeeded in inducing multimerization”.
For `Cc1sc2nc(-c3cc(O)cc(O)c3)[nH]c(=O)c2c1C` [Compound 2], the IC50 [1] is given as 3.7 ± 0.73 µM.
Work on `O=c1[nH]c(-c2c(O)cc(O)cc2O)nc2sc3c(c12)CCCCC3` [C00007] yielded an IC50 [3, 12] of 5.2 ± 1.2 µM.
In the case of `O=c1[nH]c(-c2cc(O)c(O)cc2O)nc2sc3c(c12)CCC3` [C00008], the IC50 [3, 12] is reported as 1.96 ± 0.125 µM.
For `OC[C@H]1O[C@@](CO)(O[C@H]2O[C@H](CO)[C@@H](O)[C@H](O)[C@H]2O)[C@@H](O)[C@@H]1O` [sucrose, reference compound], the “IC50 IN LEDGF/p75-dependent integration” value [3, 12] was “inactive”.
In the case of `Cc1sc2nc(-c3cc(O)c(O)cc3O)[nH]c(=O)c2c1C` [C00002], the IC50 [3, 12] is reported as 0.45 ± 0.09 µM.
With `CCCC(C(=O)O)c1c(C)nc2ccc(Cl)cc2c1-c1ccccc1` (centres unmarked) [LEDGIN-6, reference compound] the IC50 [2] was 10 ± 2 µM, the IC50 [3, 12] was 9 ± 2 µM and the IC50 [7] was over 100 µM. The “percentage in parentheses after >100, IN-IN subunit exchange” value ([7]; meaning of the bracketed percentage is not defined in the paper) was >100 (100%), the IC50 [9] was 10 ± 0.4 µM and the EC50 ([10]; read-out: MI50 IN multimerization) was 10 ± 1 µM.
Molecule `O=c1[nH]c(-c2cc(O)c(O)c(O)c2)nc2sc3c(c12)CCC3` [C00009] has an IC50 [3, 12] of 0.87 ± 0.045 µM.
`O=c1[nH]c(-c2cc(O)c(O)c(O)c2)nc2sc3c(c12)CCCCC3` [C00006] showed an IC50 [3, 12] of 0.31 ± 0.035 µM.
For `O=c1[nH]c(-c2ccc(O)c(O)c2)nc2ccc(I)cc12` [Compound 1], the IC50 [11] is given as 0.11 ± 0.01 µM.
For `Cc1sc2nc(-c3c(O)cc(O)cc3O)[nH]c(=O)c2c1C` [Compound 7, 5,6-Dimethyl-2-(2,4,6-trihydroxyphenyl)thieno[2,3-d]pyrimidin-4(3H)-one], the IC50 [3, 12] was 6.1 ± 1.6 µM.
`O=c1[nH]c(-c2cc(O)c(O)cc2O)nc2sc3c(c12)CCCCC3` [Compound 9, 2-(2,4,5-Trihydroxyphenyl)-3,5,6,7,8,9-hexahydro-4H-cyclohepta[4,5]thieno[2,3-d]pyrimidin-4-one] showed an IC50 [2] of 0.99 ± 0.09 µM, an IC50 [3, 12] of 0.965 ± 0.035 µM and an IC50 [7] of 6.35 ± 1.35 µM. The IC50 [9] was over 100 µM, the “IC50 IN/LEDGF/p75 binding” value [9] was “inactive” and the “MI50 IN multimerization” value [10] was “none succeeded in inducing multimerization”.
Work on `O=c1[nH]c(-c2cc(O)c(O)cc2O)nc2sc3c(c12)CCC3` [Compound 12, 2-(2,4,5-Ttrihydroxyphenyl)-3,5,6,7-tetrahydro-4H-cyclopenta[4,5]thieno[2,3-d]pyrimidin-4-one] yielded an IC50 [2] of 0.86 ± 0.14 µM, an IC50 [7] of 17.3 ± 1.7 µM and an IC50 [9] of 24.7 ± 1.75 µM. The “MI50 IN multimerization” value [10] was “none succeeded in inducing multimerization”.
